Patent US20090209620A1, “Direct Reversal Of The Suppressive Function Of CD4+Regulatory T Cells Via Toll-Like Receptor 8 Signaling” (priority 2005, published 2009)

Test system: Treg102 cells
Test: Proliferation and cytotoxicity of CFSE-labeled Treg cells (FACS)
Format: cell-based, human
Conditions: 3 days
Protocol: The expression of CD4, CD25 and GITR on Treg cells was determined by FACS analysis after staining with specific antibodies (purchased from R&D Systems and BD Biosciences). To isolate naturally occurring CD4^+ CD25^+ Treg cells, CD4^+ T cells were stained with anti-CD4 and anti-CD25 antibodies conjugated to either PE or FITC. After washing, the cells were sorted by FACSARIA into CD4^+ CD25^+ and CD4^+ CD25^− T cell populations. For experiments with carboxyfluorescein diacetate succinimidyl ester (CFSE)-labeled cells, näive CD4^+ T cells or Treg cells ([…]) were stained with CFSE (4.5 uM) from Molecular Probes at 37° C. for 15 min. After several washes, the labeled cells were cultured in RPMI 1640 containing 10% human AB serum and IL-2 (300 IU/ml). To determine suppression of cell division by Treg cells, unlabeled Treg cells were added to CFSE-labeled näive T cells at an 1:1 ratio in 24-well plates precoated with OKT3 (2 ug/ml) in the presence or absence of CpG-A or Poly-G2 (3 ug/ml). After 3 days in culture, the cells were analyzed by FACS gating on the CFSE-labeled cells.
FIG. 5. […] After 3 days of culture, the proliferative profile was determined by FACS analysis. […]

G* GGGGACGATCGTCG* G*G*G*G*G [CpG-A]
number of Treg cells (cytotoxicity) (presence or absence of CpG-A 3 μg/ml): did not change | proliferation of CFSE-labeled Treg cells (with naive T cells, OKT3, IL-2, CpG-A 3 μg/ml): do not proliferate
